Drawing on the OligoGym collection, this text covers target mRNA knockdown for 19 substances.

Where “and” joins values, the source holds several entries; their conditions need not be identical. Equal values may be shown once. HELM strings list units from the 5' end as sugar, base in round brackets, then linkage (d deoxyribose, r ribose, m 2'-O-methyl, p phosphodiester). Strings are as the collection lists them, not checked against the first reports. ss, as = sense and antisense strand; [lna] = locked nucleic acid (LNA); [una] = unlocked nucleic acid; [s4r] = 4'-thioribose; [fl2r] = 2'-fluoro
Note: test system not given here.

For the series the following is noted: siRNA.
As to “RNA1{r(A)p.r(C)p.r(G)p.r(G)p.r(C)p.r(U)p.r(C)p.r(G)p.r(C)p.[fl2r](U)p.r(A)p.r(C)p.r(C)p.r(C)p.r(U)p.r(C)p.r(G)p.r(A)p.r(C)p.r(T)p.r(T)}|RNA2{r(G)p.r(U)p.r(C)p.r(G)p.r(A)p.r(G)p.r(G)p.r(G)p.[fl2r](U)p.r(A)p.r(G)p.r(C)p.r(G)p.r(A)p.r(G)p.r(C)p.r(C)p.r(G)p.r(U)p.r(T)p.r(T)}$$$RNA1{StrandType:ss}|RNA2{StrandType:as}$”, the target mRNA knockdown worked out at 78%. Consider “RNA1{r(A)p.r(G)p.r(U)p.r(C)p.r(C)p.r(C)p.r(U)p.r(G)p.r(G)p.r(A)p.r(G)p.r(C)p.r(C)p.r(U)p.m(U)p.m(A)p.r(A)p.r(A)p.r(C)p.r(T)p.r(T)}|RNA2{r(G)p.r(U)p.r(U)p.r(U)p.m(A)p.r(A)p.r(G)p.r(G)p.r(C)p.r(U)p.r(C)p.r(C)p.r(A)p.r(G)p.r(G)p.r(G)p.r(A)p.r(C)p.r(U)p.r(T)p.r(T)}$$$RNA1{StrandType:ss}|RNA2{StrandType:as}$”, for which the target mRNA knockdown was found to be 62%.

Substance “RNA1{r(C)p.[fl2r](U)p.r(G)p.r(A)p.r(C)p.r(C)p.r(G)p.r(G)p.r(A)p.r(A)p.r(G)p.r(C)p.r(G)p.r(C)p.r(U)p.r(U)p.r(A)p.r(A)p.r(A)p.r(T)p.r(T)}|RNA2{r(U)p.r(U)p.[fl2r](U)p.r(A)p.r(A)p.r(G)p.r(C)p.r(G)p.r(C)p.r(U)p.r(U)p.r(C)p.r(C)p.r(G)p.r(G)p.r(U)p.r(C)p.r(A)p.r(G)p.r(T)p.r(T)}$$$RNA1{StrandType:ss}|RNA2{StrandType:as}$” gave a target mRNA knockdown of 87%.

As to “RNA1{r(C)p.r(U)p.r(U)p.r(A)p.r(C)p.r(G)p.r(C)p.r(U)p.r(G)p.r(A)p.r(G)p.r(U)p.r(A)p.r(C)p.r(U)p.r(U)p.r(C)p.r(G)p.r(A)p.r(T)p.r(T)}|RNA2{r(T)p.r(C)p.r(G)p.r(A)p.r(A)p.r(G)p.r(U)p.r(A)p.r(C)p.r(U)p.r(C)p.[lna](A)p.r(G)p.r(C)p.r(G)p.r(U)p.r(A)p.r(A)p.r(G)p.[lna](T)p.[lna](T)}$$$RNA1{StrandType:ss}|RNA2{StrandType:as}$”, the target mRNA knockdown was 70% and 94%.

For the substance “RNA1{m(A)p.r(A)p.m(C)p.r(A)p.m(G)p.r(U)p.m(C)p.r(C)p.m(U)p.r(U)p.r(A)p.m(G)p.r(C)p.m(U)p.r(A)p.r(C)p.m(G)p.r(C)p.r(U)p.r(T)p.r(T)}|RNA2{r(A)p.r(G)p.r(C)p.r(G)p.r(U)p.r(A)p.r(G)p.r(C)p.r(U)p.r(A)p.r(A)p.r(G)p.r(G)p.r(A)p.r(C)p.r(U)p.r(G)p.r(U)p.r(U)p.r(T)p.r(T)}$$$RNA1{StrandType:ss}|RNA2{StrandType:as}$”, the target mRNA knockdown came to 35%.

The substance “RNA1{r(A)p.[fl2r](A)p.r(G)p.r(G)p.r(C)p.[fl2r](C)p.r(A)p.r(A)p.r(C)p.r(C)p.r(G)p.r(A)p.[fl2r](U)p.r(A)p.r(C)p.r(U)p.r(U)p.r(C)p.r(U)p.r(T)p.r(T)}|RNA2{r(A)p.r(G)p.r(A)p.r(A)p.r(G)p.[fl2r](U)p.r(A)p.r(U)p.r(C)p.r(G)p.r(G)p.r(U)p.[fl2r](U)p.r(G)p.r(G)p.r(C)p.r(C)p.r(U)p.r(U)p.r(T)p.r(T)}$$$RNA1{StrandType:ss}|RNA2{StrandType:as}$” gave a target mRNA knockdown of 68%. With “RNA1{[una](A)p.r(C)p.r(A)p.r(G)p.r(A)p.r(G)p.r(U)p.r(C)p.r(C)p.r(C)p.r(U)p.r(C)p.r(A)p.r(A)p.r(A)p.r(C)p.r(A)p.r(G)p.r(A)p.[una](U)p.[una](U)}|RNA2{r(U)p.r(C)p.r(U)p.r(G)p.r(U)p.r(U)p.r(U)p.r(G)p.r(A)p.r(G)p.r(G)p.r(G)p.r(A)p.r(C)p.r(U)p.r(C)p.r(U)p.r(G)p.r(U)p.[una](U)p.[una](U)}$$$RNA1{StrandType:ss}|RNA2{StrandType:as}$”, the target mRNA knockdown was 94% and 92% and 91%. The same measure for “RNA1{r(C)p.r(G)p.r(U)p.r(A)p.r(C)p.r(G)p.r(C)p.r(G)p.r(G)p.r(A)p.r(A)p.r(U)p.r(A)p.r(C)p.r(U)p.r(U)p.r(C)p.r(G)p.r(A)p.r(T)p.r(T)}|RNA2{[s4r](U)p.[s4r](C)p.[s4r](G)p.[s4r](A)p.r(A)p.r(G)p.r(U)p.r(A)p.r(U)p.r(U)p.r(C)p.r(C)p.r(G)p.r(C)p.r(G)p.r(U)p.r(A)p.r(C)p.r(G)p.r(T)p.r(T)}$$$RNA1{StrandType:ss}|RNA2{StrandType:as}$”: 76.7%.

“RNA1{r(C)p.r(U)p.r(U)p.r(A)p.r(C)p.r(G)p.r(C)p.r(U)p.r(G)p.r(A)p.r(G)p.r(U)p.r(A)p.r(C)p.r(U)p.r(U)p.r(C)p.r(G)p.r(A)p.d(T)p.d(T)}|RNA2{[lna](T)p.r(C)p.r(G)p.r(A)p.r(A)p.r(G)p.r(U)p.[lna](A)p.r(C)p.r(U)p.[lna](C)p.r(A)p.r(G)p.r(C)p.r(G)p.r(U)p.[lna](A)p.r(A)p.r(G)p.[lna](T)p.[lna](T)}$$$RNA1{StrandType:ss}|RNA2{StrandType:as}$” gave a target mRNA knockdown of 15%. Then “RNA1{m(A)p.r(U)p.m(C)p.r(A)p.m(G)p.r(A)p.m(G)p.r(G)p.m(G)p.r(A)p.m(G)p.r(G)p.m(U)p.r(C)p.m(U)p.r(U)p.m(A)p.r(G)p.m(A)p.r(T)p.r(T)}|RNA2{r(U)p.r(C)p.r(U)p.r(A)p.r(A)p.m(G)p.r(A)p.r(C)p.r(C)p.r(U)p.r(C)p.r(C)p.r(C)p.r(U)p.m(C)p.r(U)p.m(G)p.r(A)p.m(U)p.r(T)p.r(T)}$$$RNA1{StrandType:ss}|RNA2{StrandType:as}$”, with 19%; and “RNA1{[fl2r](U)p.r(A)p.r(A)p.r(C)p.r(C)p.r(C)p.[fl2r](C)p.r(A)p.r(A)p.r(G)p.r(A)p.r(A)p.[fl2r](C)p.r(G)p.r(G)p.r(G)p.r(C)p.r(U)p.r(U)p.r(T)p.r(T)}|RNA2{r(A)p.r(A)p.r(G)p.r(C)p.r(C)p.r(C)p.[fl2r](G)p.r(U)p.r(U)p.r(C)p.r(U)p.[fl2r](U)p.r(G)p.r(G)p.r(G)p.r(G)p.r(U)p.[fl2r](U)p.r(A)p.r(T)p.r(T)}$$$RNA1{StrandType:ss}|RNA2{StrandType:as}$”, with 72%. Substance “RNA1{r(C)p.r(G)p.r(A)p.r(A)p.r(A)p.r(G)p.r(U)p.r(G)p.r(U)p.r(A)p.r(U)p.r(C)p.r(C)p.r(G)p.r(A)p.r(A)p.r(G)p.r(A)p.r(C)p.r(T)p.r(T)}|RNA2{r(G)p.r(U)p.r(C)p.r(U)p.r(U)p.r(C)p.r(G)p.r(G)p.r(A)p.[fl2r](U)p.r(A)p.r(C)p.r(A)p.r(C)p.r(U)p.r(U)p.r(U)p.r(C)p.r(G)p.r(T)p.r(T)}$$$RNA1{StrandType:ss}|RNA2{StrandType:as}$” gave a target mRNA knockdown of 69%. With “RNA1{r(C)p.r(U)p.r(U)p.r(A)p.r(C)p.r(G)p.r(C)p.r(U)p.r(G)p.r(A)p.r(G)p.r(U)p.r(A)p.r(C)p.r(U)p.r(U)p.r(C)p.r(G)p.r(A)p.r(T)p.r(T)}|RNA2{r(U)p.r(C)p.r(G)p.r(A)p.r(A)p.r(G)p.r(U)p.[lna](A)p.r(C)p.r(U)p.r(C)p.r(A)p.r(G)p.r(C)p.r(G)p.r(U)p.r(A)p.r(A)p.r(G)p.r(T)p.r(T)}$$$RNA1{StrandType:ss}|RNA2{StrandType:as}$”, the target mRNA knockdown was 86%. Then “RNA1{r(A)p.r(G)p.r(C)p.r(G)p.r(G)p.r(G)p.r(G)p.m(U)p.r(A)p.r(U)p.r(G)p.r(A)p.r(A)p.r(G)p.r(A)p.r(G)p.r(C)p.r(U)p.r(U)p.r(T)p.r(T)}|RNA2{r(A)p.r(A)p.r(G)p.r(C)p.r(U)p.r(C)p.r(U)p.r(U)p.r(C)p.r(A)p.m(U)p.r(A)p.r(C)p.r(C)p.r(C)p.r(C)p.r(G)p.r(C)p.r(U)p.r(T)p.r(T)}$$$RNA1{StrandType:ss}|RNA2{StrandType:as}$”, with 82%; and “RNA1{m(A)p.r(G)p.m(A)p.r(A)p.m(A)p.r(C)p.m(G)p.r(C)p.m(A)p.r(G)p.m(U)p.r(A)p.m(A)p.r(U)p.m(C)p.r(C)p.m(G)p.r(G)p.m(A)p.r(T)p.r(T)}|RNA2{r(U)p.r(C)p.r(C)p.m(G)p.m(G)p.r(A)p.r(U)p.r(U)p.r(A)p.r(C)p.r(U)p.m(G)p.r(C)p.m(G)p.r(U)p.r(U)p.r(U)p.r(C)p.r(U)p.r(T)p.r(T)}$$$RNA1{StrandType:ss}|RNA2{StrandType:as}$”, with 36%.

“RNA1{m(U)p.r(C)p.m(C)p.r(U)p.m(C)p.r(G)p.m(U)p.r(C)p.m(G)p.r(U)p.m(C)p.r(U)p.m(G)p.r(U)p.m(U)p.r(C)p.m(U)p.r(A)p.m(A)p.r(T)p.r(T)}|RNA2{r(U)p.r(U)p.m(A)p.r(G)p.m(A)p.r(A)p.r(C)p.r(A)p.r(G)p.r(A)p.r(C)p.r(G)p.r(A)p.r(C)p.r(G)p.r(A)p.m(G)p.r(G)p.m(A)p.r(T)p.r(T)}$$$RNA1{StrandType:ss}|RNA2{StrandType:as}$” had a target mRNA knockdown of 63%.

Substance “RNA1{r(G)p.r(A)p.r(A)p.m(U)p.r(A)p.r(A)p.r(C)p.r(C)p.r(U)p.r(G)p.r(A)p.r(A)p.r(C)p.r(G)p.r(U)p.r(C)p.r(A)p.r(C)p.r(C)p.r(T)p.r(T)}|RNA2{r(G)p.r(G)p.r(U)p.r(G)p.r(A)p.r(C)p.r(G)p.r(U)p.r(U)p.r(C)p.r(A)p.r(G)p.r(G)p.r(U)p.m(U)p.r(A)p.r(U)p.r(U)p.r(C)p.r(T)p.r(T)}$$$RNA1{StrandType:ss}|RNA2{StrandType:as}$” registered a target mRNA knockdown of 55%. Turning to “RNA1{r(C)p.r(U)p.r(U)p.r(A)p.r(C)p.r(G)p.r(C)p.r(U)p.r(G)p.r(A)p.r(G)p.r(U)p.r(A)p.r(C)p.r(U)p.r(U)p.r(C)p.r(G)p.r(A)p.r(T)p.r(T)}|RNA2{r(U)p.r(C)p.r(G)p.r(A)p.r(A)p.[lna](G)p.r(U)p.r(A)p.r(C)p.r(U)p.r(C)p.r(A)p.r(G)p.r(C)p.r(G)p.r(U)p.r(A)p.r(A)p.r(G)p.r(T)p.r(T)}$$$RNA1{StrandType:ss}|RNA2{StrandType:as}$”, the target mRNA knockdown came to 82%. Then “RNA1{r(C)p.r(U)p.r(U)p.r(A)p.r(C)p.r(G)p.r(C)p.r(U)p.r(G)p.r(A)p.r(G)p.r(U)p.r(A)p.r(C)p.r(U)p.r(U)p.r(C)p.r(G)p.r(A)p.d(T)p.d(T)}|RNA2{r(U)p.r(C)p.r(G)p.r(A)p.r(A)p.r(G)p.r(U)p.r(A)p.r(C)p.[lna](T)p.r(C)p.r(A)p.r(G)p.r(C)p.r(G)p.r(U)p.r(A)p.r(A)p.r(G)p.[lna](T)p.[lna](T)}$$$RNA1{StrandType:ss}|RNA2{StrandType:as}$”, with 52%.
